Calls of active or inactive are those of the source. The calls are words filed in the database; no cut-off is given here.
Key:
[1] = target: T1, Aminopeptidase N (Homo sapiens, UniProt P15144); test: Inhibition of Aminopeptidase N (unknown origin) using Ala-AMC as substrate at 10 uM incubated for 30 mins by SpectraMax microplate reader analysis relative to control
[2] = tested on: Vero; test: Inhibition of protein synthesis in African green monkey Vero cells at 25 uM relative to control; format: functional; conditions: Chlorocebus sabaeus
[3] = Cytotoxicity against African green monkey Vero cells by MTT assay; format: toxicity, cell-based; conditions: chlorocebus sabaeus
[4] = target: T1, Aminopeptidase N; test: Inhibition of Aminopeptidase N (unknown origin) using Ala-AMC as substrate incubated for 30 mins by SpectraMax microplate reader analysis
[5] = target: Puromycin-sensitive aminopeptidase (Homo sapiens, UniProt P55786); test: Inhibition of human N-terminal His-tagged Puromycin-sensitive aminopeptidase extracted from Escherichia coli BL21 STAR (DE3) using alanine-4-methoxy-2-naphthylamide as substrate incubated for 30 mins by SpectraMax microplate reader analysis
[6] = tested on: Mus musculus; test: Antinociceptive activity in CF-1 mouse assessed as increase in maximal possible effect at 50 to 100 ug,icv administration measured after 15 mins by tail-flick test; format: functional, organism-based; conditions: dose 50-100 µg
[7] = tested on: Mus musculus; test: Antinociceptive activity in CF-1 mouse assessed as increase in maximal possible effect at 50 to 100 ug,icv administration in presence of Met-enkephalin measured after 65 mins by tail-flick test; format: functional, organism-based; conditions: dose 50-100 µg
[8] = tested on: Mus musculus; test: Antinociceptive activity in CF-1 mouse assessed as analgesic effect at 50 to 100 ug,icv administration measured after 15 mins by hot plate assay; format: functional, organism-based; conditions: dose 50-100 µg
[9] = tested on: Mus musculus; test: Antinociceptive activity in CF-1 mouse assessed as increase in maximal possible effect at 50 to 100 ug,icv administration in presence of Met-enkephalin measured after 15 mins by hot plate assay; format: functional, organism-based; conditions: dose 50-100 µg
[10] = tested on: Mus musculus; test: Antinociceptive activity in CF-1 mouse assessed as analgesic effect at 50 to 100 ug,icv administration measured after 45 mins by tail-flick test; format: functional, organism-based; conditions: dose 50-100 µg
[11] = tested on: Mus musculus; test: Antinociceptive activity in CF-1 mouse assessed as analgesic effect at 50 to 100 ug,icv administration measured after 60 mins by tail-flick test; format: functional, organism-based; conditions: dose 50-100 µg
[12] = tested on: Mus musculus; test: Antinociceptive activity in CF-1 mouse assessed as increase in maximal possible effect at 50 to 100 ug,icv administration in presence of Met-enkephalin measured after 65 mins by hot plate assay; format: functional, organism-based; conditions: dose 50-100 µg
[13] = tested on: Mus musculus; test: Antinociceptive activity in CF-1 mouse assessed as increase in MERF level in brain at 50 to 100 ug,icv administration in presence of KCL measured after 65 mins by LC-MS/MS analysis; format: functional, organism-based; conditions: dose 50-100 µg
[14] = tested on: Mus musculus; test: Antinociceptive activity in CF-1 mouse assessed as analgesic effect at ip administration measured after 15 mins by hot plate assay; format: functional, organism-based
[15] = tested on: Mus musculus; test: Antinociceptive activity in CF-1 mouse assessed as increase in maximal possible effect at 50 to 100 ug,icv administration in presence of naloxone measured after 15 mins by tail-flick test; format: functional, organism-based; conditions: dose 50-100 µg
[16] = tested on: Mus musculus; test: Antinociceptive activity in CF-1 mouse assessed as analgesic effect at ip administration measured after 60 mins by tail-flick test; format: functional, organism-based
[17] = tested on: Mus musculus; test: Antinociceptive activity in CF-1 mouse assessed as increase in maximal possible effect at 50 to 100 ug,icv administration in presence of naloxone measured after 65 mins by tail-flick test; format: functional, organism-based; conditions: dose 50-100 µg
[18] = tested on: Mus musculus; test: Antinociceptive activity in CF-1 mouse assessed as increase in Met-enkephalin level in brain at 50 to 100 ug,icv administration in presence of KCL measured after 65 mins by LC-MS/MS analysis; format: functional, organism-based; conditions: dose 50-100 µg
[19] = tested on: Mus musculus; test: Antinociceptive activity in CF-1 mouse assessed as increase in maximal possible effect at 50 to 100 ug,icv administration in presence of naloxone measured after 15 mins by hot plate assay; format: functional, organism-based; conditions: dose 50-100 µg
[20] = tested on: Mus musculus; test: Antinociceptive activity in CF-1 mouse assessed as increase in maximal possible effect at 50 to 100 ug,icv administration in presence of naloxone measured after 65 mins by hot plate assay; format: functional, organism-based; conditions: dose 50-100 µg
[21] = Stability in mouse plasma assessed as compound remaining at 1 uM measured after 24 hr by LC-MS/MS analysis relative to control; format: ADME, cell-free
[22] = tested on: Mus musculus; test: Antinociceptive activity in CF-1 mouse assessed as increase in maximal possible effect at 50 to 100 ug,icv administration in presence of Met-enkephalin measured after 15 mins by tail-flick test; format: functional, organism-based; conditions: dose 50-100 µg
[23] = tested on: Mus musculus; test: Antinociceptive activity in CF-1 mouse assessed as increase in Leu-enkephalin level in brain at 50 to 100 ug,icv administration in presence of KCL measured after 65 mins by LC-MS/MS analysis; format: functional, organism-based; conditions: dose 50-100 µg
[24] = tested on: Mus musculus; test: Antinociceptive activity in CF-1 mouse assessed as increase in maximal possible effect at 50 to 100 ug,icv administration measured after 60 mins by tail-flick test; format: functional, organism-based; conditions: dose 50-100 µg

T1 sequence (P15144 whole entry): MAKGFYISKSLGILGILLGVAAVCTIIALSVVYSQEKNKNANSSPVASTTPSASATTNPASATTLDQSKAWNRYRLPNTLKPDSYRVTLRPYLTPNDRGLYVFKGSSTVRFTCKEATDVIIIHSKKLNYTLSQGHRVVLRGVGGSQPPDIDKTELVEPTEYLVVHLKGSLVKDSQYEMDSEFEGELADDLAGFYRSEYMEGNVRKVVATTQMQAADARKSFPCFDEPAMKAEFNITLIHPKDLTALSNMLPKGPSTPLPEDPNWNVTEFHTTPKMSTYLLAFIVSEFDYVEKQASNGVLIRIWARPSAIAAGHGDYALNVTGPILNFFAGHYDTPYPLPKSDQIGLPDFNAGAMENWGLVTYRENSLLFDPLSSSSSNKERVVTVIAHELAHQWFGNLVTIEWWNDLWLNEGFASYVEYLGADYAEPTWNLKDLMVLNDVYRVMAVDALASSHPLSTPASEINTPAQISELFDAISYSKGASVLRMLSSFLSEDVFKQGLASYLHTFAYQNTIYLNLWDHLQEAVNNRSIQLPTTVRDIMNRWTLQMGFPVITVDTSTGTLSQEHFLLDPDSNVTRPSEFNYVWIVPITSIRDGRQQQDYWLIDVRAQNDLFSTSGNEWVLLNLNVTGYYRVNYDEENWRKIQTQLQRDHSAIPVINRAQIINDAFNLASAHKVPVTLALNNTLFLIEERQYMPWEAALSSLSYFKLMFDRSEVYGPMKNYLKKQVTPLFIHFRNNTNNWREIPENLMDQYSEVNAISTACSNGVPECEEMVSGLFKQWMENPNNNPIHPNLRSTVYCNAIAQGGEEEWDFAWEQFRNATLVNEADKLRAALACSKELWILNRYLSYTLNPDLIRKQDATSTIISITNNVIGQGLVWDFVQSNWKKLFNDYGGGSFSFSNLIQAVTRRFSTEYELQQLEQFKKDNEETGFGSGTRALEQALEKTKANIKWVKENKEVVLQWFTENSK
Puromycin-sensitive aminopeptidase, sequence (P55786 whole entry): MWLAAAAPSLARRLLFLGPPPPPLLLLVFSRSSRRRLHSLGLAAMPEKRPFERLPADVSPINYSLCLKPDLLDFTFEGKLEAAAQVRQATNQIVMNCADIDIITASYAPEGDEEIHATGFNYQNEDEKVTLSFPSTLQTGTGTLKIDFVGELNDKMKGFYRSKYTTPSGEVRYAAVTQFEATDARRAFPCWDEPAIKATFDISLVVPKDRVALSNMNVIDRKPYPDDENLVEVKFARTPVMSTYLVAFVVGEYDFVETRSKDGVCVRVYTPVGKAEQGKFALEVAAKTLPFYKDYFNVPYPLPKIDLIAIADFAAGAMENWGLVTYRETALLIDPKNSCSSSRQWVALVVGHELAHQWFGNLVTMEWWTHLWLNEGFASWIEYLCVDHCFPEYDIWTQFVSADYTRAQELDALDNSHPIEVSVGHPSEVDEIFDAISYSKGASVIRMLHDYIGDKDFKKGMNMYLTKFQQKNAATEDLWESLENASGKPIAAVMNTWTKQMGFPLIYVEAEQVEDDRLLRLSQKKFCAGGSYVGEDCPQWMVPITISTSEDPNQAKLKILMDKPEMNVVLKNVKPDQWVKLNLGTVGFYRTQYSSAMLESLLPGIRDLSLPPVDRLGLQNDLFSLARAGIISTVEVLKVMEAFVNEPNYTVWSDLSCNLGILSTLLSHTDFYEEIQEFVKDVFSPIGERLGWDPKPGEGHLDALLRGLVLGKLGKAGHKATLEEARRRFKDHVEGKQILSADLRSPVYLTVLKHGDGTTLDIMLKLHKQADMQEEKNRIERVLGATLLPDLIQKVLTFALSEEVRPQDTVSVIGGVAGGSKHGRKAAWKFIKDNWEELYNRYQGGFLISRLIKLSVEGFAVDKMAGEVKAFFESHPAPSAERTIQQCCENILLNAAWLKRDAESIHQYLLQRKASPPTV

Q: For `CN(C)c1ncnc2c1ncn2[C@@H]1O[C@H](CCl)[C@@H](NC(=O)[C@H](CSC23CC4CC(CC(C4)C2)C3)NC(=O)OC(C)(C)C)[C@H]1O`, which inhibition [1] is on record?
A: 0%

Q: And the inhibition at 25 µM [2]?
A: 22.1%

Q: For `O=C(O)CNC(=O)C(CS)Cc1ccccc1` (centres undefined) [THIORPHAN], which inhibition [1] is on record?
A: 0%

Q: What about the inhibition at 25 µM [2] of the same compound?
A: 70.3%

Q: What about the CC50 [3] of the same compound?
A: > 100 µM

Q: What about the IC50 [4] of the same compound?
A: > 100 µM

Q: What about the IC50 [5] of the same compound?
A: 57.3 µM

Q: Which results are given for `CN(C)c1ncnc2c1ncn2[C@@H]1O[C@H](CCl)[C@@H](NC(=O)[C@H](N)CSC(c2ccccc2)c2ccccc2)[C@H]1O`?
A: inhibition [1]: 38.9%; inhibition at 25 µM [2]: 0%

Q: Which inhibition at 25 µM [2] does the source give for `CN(C)c1ncnc2c1ncn2[C@@H]1O[C@H](CO)[C@@H](NC(=O)[C@@H](N)CSC(c2ccccc2)c2ccccc2)[C@H]1O` here?
A: 0%

Q: And the CC50 [3]?
A: > 100 µM

Q: What about the IC50 [5] of the same compound?
A: 0.007 µM

Q: With `CN(C)c1ncnc2c1ncn2[C@@H]1O[C@H](CO)[C@@H](NC(=O)[C@@H](N)CSC23CC4CC(CC(C4)C2)C3)[C@H]1O` as the compound, how does the inhibition [1] read?
A: 99.1%

Q: And the inhibition at 25 µM [2]?
A: 24%

Q: What about the CC50 [3] of the same compound?
A: 17.6 µM

Q: Which inhibition [1] does the source give for `CN(C)c1ncnc2c1ncn2[C@@H]1O[C@H](CCl)[C@@H](NC(=O)[C@@H](CSC(c2ccccc2)c2ccccc2)NC(=O)OC(C)(C)C)[C@H]1O` here?
A: 0%

Q: What about the inhibition at 25 µM [2] of the same compound?
A: 0%

Q: And the CC50 [3]?
A: 67.4 µM

Q: For `CN(C)c1ncnc2c1ncn2[C@@H]1O[C@H](CO)[C@@H](NC(=O)[C@H](N)CSC(c2ccccc2)c2ccccc2)[C@H]1O`, which inhibition at 25 µM [2] is on record?
A: 0%

Q: What about the CC50 [3] of the same compound?
A: 46 µM

Q: What does the source list for `CC(C)C[C@H](NC(=O)[C@@H](O)[C@H](N)Cc1ccccc1)C(=O)O` [UBENIMEX]?
A: inhibition at 25 µM [2]: 28%; CC50 [3]: 25 µM

Q: Which Activity [6] does the source give for `CN(C)c1ncnc2c1ncn2[C@@H]1O[C@H](CCl)[C@@H](NC(=O)[C@@H](N)CSC(c2ccccc2)c2ccccc2)[C@H]1O` here?
A: Active

Q: And the Activity [7]?
A: Active

Q: And the Activity [8]?
A: Active

Q: What about the Activity [9] of the same compound?
A: Active

Q: And the inhibition [1]?
A: 55.8%

Q: And the Activity [10]?
A: Active

Q: What about the Activity [11] of the same compound?
A: Active

Q: What about the Activity [12] of the same compound?
A: Active

Q: And the inhibition at 25 µM [2]?
A: 0%

Q: And the Activity [13]?
A: Active

Q: And the Activity [14]?
A: inactive

Q: What about the Activity [15] of the same compound?
A: inactive

Q: What about the Activity [16] of the same compound?
A: inactive

Q: What about the Activity [17] of the same compound?
A: inactive

Q: And the Activity [18]?
A: inactive

Q: And the Activity [19]?
A: inactive

Q: What about the CC50 [3] of the same compound?
A: > 100 µM

Q: And the Activity [20]?
A: inactive

Q: And the Stability [21]?
A: 116.7%

Q: What about the IC50 [4] of the same compound?
A: 2.6 µM

Q: What about the Activity [22] of the same compound?
A: Active

Q: What about the Activity [23] of the same compound?
A: Active

Q: And the Activity [24]?
A: Active

Q: What about the IC50 [5] of the same compound?
A: 0.007 µM

Q: Which inhibition at 25 µM [2] does the source give for `COc1ccc(C[C@H](N)C(=O)N[C@H]2[C@@H](O)[C@H](n3cnc4c(N(C)C)ncnc43)O[C@@H]2CCl)cc1` here?
A: 26.1%

Q: And the IC50 [4]?
A: > 100 µM

Q: With `CN(C)c1ncnc2c1ncn2[C@@H]1O[C@H](CCl)[C@@H](NC(=O)[C@@H](N)CSC23CC4CC(CC(C4)C2)C3)[C@H]1O` as the compound, how does the inhibition [1] read?
A: 99.1%

Q: What about the inhibition at 25 µM [2] of the same compound?
A: 10.4%

Q: And the IC50 [4]?
A: 0.084 µM

Q: What about the IC50 [5] of the same compound?
A: 0.005 µM

Q: What does the source list for `CC(C)C[C@@H](C(=O)N[C@H](C(=O)OC1CCCC1)c1ccccc1)[C@H](O)C(=O)NO` [TOSEDOSTAT]?
A: inhibition at 25 µM [2]: 34.5%; CC50 [3]: 12.7 µM

Q: Which inhibition at 25 µM [2] does the source give for `COc1ccc(C[C@H](N)C(=O)N[C@H]2[C@@H](O)[C@H](n3cnc4c(N(C)C)ncnc43)O[C@@H]2CO)cc1` [PUROMYCIN] here?
A: 99%

Q: What about the CC50 [3] of the same compound?
A: 2.76 µM

Q: With `CN(C)c1ncnc2c1ncn2[C@@H]1O[C@H](CCl)[C@@H](NC(=O)[C@H](CSC(c2ccccc2)c2ccccc2)NC(=O)OC(C)(C)C)[C@H]1O` as the compound, how does the inhibition [1] read?
A: 4.6%

Q: And the inhibition at 25 µM [2]?
A: 3%

Q: And the CC50 [3]?
A: > 100 µM

Source: ChEMBL document CHEMBL5579842, “Modulation of endogenous opioid signaling by inhibitors of puromycin-sensitive aminopeptidase” (Eur J Med Chem, 2024)
